From patent US11446294B2, “Non-platinum-based anti-cancer compounds for use in targeted chemotherapy” (priority 2013, dated 2022)
“Also recorded” adds a separate entry of the source.

Tests used:
[1] = fs-TRLS observation of DET reaction with a weakly-bound electron; settings: pump 350 nm, probe 400 nm; for DET reaction with weakly-bound electron ewb−: identical conditions
Excerpt: Femtosecond (fs) time-resolved laser spectroscopy (fs-TRLS) is the most versatile and powerful technique for real-time observation of molecular reactions. It uses laser flashes of such short duration that we are down to the time scale on which the reactions actually happen—femtoseconds (fs) (1 fs=10^−15 seconds). […] For the latter, briefly our fs laser amplifier system (Spectra-Physics, Spitfire) produced laser pulses with a pulse width of 100-120 fs at a repetition rate of 500 Hz. A intense pump pulse at 350 nm was used to generate a weakly-bound electron (ewb^−) by 2-photon excitation of a H2O molecule into a higher energy state H2O* that then ionizes to produce an ewb^−; a probe pulse at 400 nm coming at certain delay was used to monitor the DET reaction with the electron by detecting transient absorbance of the reaction intermediate anion state.

[2] = tested on: human lung cancer (A549) cells; assay: MTT cell viability, A549; format: cell-based
Protocol: (§1) The complete growth media for ME-180, NIH:OVCAR-3, A549 and MDA-MB-231 cells were the ATCC-formulated McCoy's 5A Medium supplemented with 10% FBS, RPMI 1640 medium with 20%, F-12K medium with 10% FBS, and L-15 Medium (Leibovitz) with 10% FBS, respectively.
(§2) The MTT assay of cell viability was then conducted.

[3] = tested on: human breast cancer (MDA-MB-231) cells; assay: MTT cell viability, MDA-MB-231; format: cell-based; settings: MDA-MB-231, 96-hr treatment
Protocol: as §1, §2

[4] = tested on: cisplatin-resistant human ovarian cancer (NIH:OVCAR-3, HTB-161) cells; assay: MTT cell viability, HTB-161; format: cell-based; settings: HTB-161, 96-hr treatment
Protocol: as §1, §2

[5] = tested on: human normal cells (GM05757); assay: MTT cell viability, human normal cells (toxicity); settings: for toxicity to human normal cells (cell survival rate): GM05757, 96-hr treatment, up to 200 μM
Protocol: A human skin diploid fibroblast (GM05757 cell line) was obtained from the Coriell Cell Repository directly. Fetal bovine serum (FBS) was obtained from Hyclone Laboratories (UT, USA). The GM05757 normal cells were cultivated with MEM (Hyclone) supplemented with 10% FBS, 100 units/mL penicillin G and 100 μg/mL streptomycin (Hyclone). The cells were maintained at 37° C. in a humidified atmosphere containing 5% CO2.
The toxic effects of NPBs on cell viability were determined by the 3-[4,5-dimethylthiazol-2-yl]-2,5-diphenyl tetrazoliumbromide (MTT) assay. Cells were cultured in 96-well plates (5×10^3 cells/well) for 24 h. The culture medium was replaced by fresh culture medium and incubated for 72 or 96 h with varying drug concentrations. The MTT assay of cell viability was then conducted. Briefly, 100 μl new medium without phenol red containing 1.2 mM MTT (sigma) (i.e., adding 10 μl 12 mM MTT stock solution in PBS) were added to each well and incubated for 4 h. The medium was then removed, and the formazan crystals solubilized by 100 μL/well DMSO (or alternatively by 100 μl/well SDS and incubated for another 4 h). The surviving fraction was determined by measuring the absorbance at 540 nm (570 nm for SDS solubilization) using a Multiskan Spectrum UV/Vis microplate reader (Thermo Scientific), which is directly proportional to the number of viable cells.

[6] = tested on: human cervical cancer (ME-180) cells; assay: MTT cell viability, ME-180; format: cell-based; settings: ME-180, 96-hr treatment
Protocol: as §1, §2

[7] = tested on: human cervical cancer (HeLa) cells; assay: MTT cell viability, HeLa; format: cell-based; settings: 96-hr treatment
[8] = tested on: human cervical cancer (ME-180) cells; assay: CellEvent Caspase-3/7 apoptosis assay by fluorescence microscopy; format: cell-based; settings: 48 h
Excerpt: Human cervical cancer (ME-180) cells were purchased from the American Type Culture Collection (ATCC).
The CellEvent™ Caspase-3/7 Green Detection Kit (Invitrogen) was used for the detection of activated caspases and apoptotic cells following the vendor's protocol. This kit provides a […] specific for caspase-3 and -7; the cells show green fluorescence for activated caspase-3 and -7. The reagent consists of a four amino acid peptide (DEVD) conjugated to a nucleic acid binding dye. This cell-permeant substrate is intrinsically non-fluorescent, because the DEVD peptide inhibits the ability of the dye to bind to DNA. After activation of caspase-3 or caspase-7 in apoptotic cells, the DEVD peptide is cleaved, enabling the dye to bind to DNA and produce green fluorescence. Briefly, to use the CellEvent™ Caspase-3/7 Green Detection Reagent, add the substrate to the cells in complete growth medium, incubate for 30 minutes, and image. […] Because the cleaved reagent labels nuclei of caspase 3/7-positive cells, this stain can also provide information on nuclear morphology, including condensed nuclei typical of late-stage apoptosis. ME-180 cells were grown to 60% confluence and then treated with 0-200 μM compound B for 48 h. The fluorescence was detected with a Nikon Eclipse TS100 microscope. Images were captured with an attached camera.

[9] = In vivo toxicity in SCID mice
Protocol: The two groups (five 6-8 week SCID mice/group) in the experiment were: (1) control article (in 5% EtOH/medium); and (2) Compound B 7 mg/kg in 5% EtOH/medium, as shown in Table 2. Compound B was injected IP every day for 5 days.
(§3) 6-8 week SCID mice were used in this study; Compound B as an exemplary NPB was dissolved in 5% EtOH: 95% cell culture medium (≈1:20).
6-8 week SCID Mice were individually weighed and injected intraperitoneally (IP) according to body weight for an injection concentration as outlined in the study group table above. Compound B was administered by IP injection into mice at 0, and 7 mg/kg daily for 5 days. The injection volume was based on 200 μL per 20 g mouse. The skin surface was wiped down with 70% isopropyl alcohol to clean the injection site.
The overall drug toxicity in mice was observed by a survival assay and body weight measurements, and the acute drug toxicity was measured by blood collection and histology. The hepatotoxicity (ALT, ALP, total bilirubin), nephrotoxicity (blood urea, creatinine), and electrolytes (Na, K, Cl) were analyzed by biochemical methods or HPLC-mass spectroscopy. […] Blood samples were collected from the saphenous vein at various time points after drug injection. At the end of the study, whole organs were harvested in order to assess liver, and kidney toxicity.
All animals were observed post administration, and at least once a day, more if deemed necessary, during the pre-treatment and treatment periods for mortality and morbidity. In particular, animals were monitored for signs of ill health such as body weight loss, change in appetite, behavior changes such as altered gait, lethargy and gross manifestations of stress.

[10] = tested on: human cervical cancer (ME-180) cells; assay: γH2AX DNA damage assay (DNA double-strand breaks); format: cell-based; settings: ME-180, 12 h treatment
Protocol: The γH2AX DNA damage assay (Invitrogen) was used to detect DSBs of genomic DNA in cancer cells. The phosphorylated H2AX foci are a biomarker of DNA DSB. DNA DSBs are measured by specific antibody-based detection of phosphorylated H2AX (γH2AX) in the nucleus. Briefly, the human cervical cancer (ME-180) cells were treated with different concentrations of compound B for 12 h under the cell culture conditions described above. Then following the detailed experimental procedures described in the Protocol provided by the manufacturer, we performed the HCS DNA Damage Assay of the treated cells. The images of cells were acquired with a Nikon Eclipse TS100 fluorescence microscope; quantitative analyses of activated γ-H2AX (DNA DBS yield) in the cells were performed using an Image J software.

[11] = tested on: human cervical cancer (ME-180) tumor; assay: Xenograft mouse model of human cervical cancer (ME-180); format: in vivo, SCID mice; settings: 7 mg/kg daily for 5 days, IP
Protocol: The two groups in the experiment were: (1) control article (5% EtOH/medium); (2) Compound B at 7 mg/kg in 5% EtOH/medium daily for 5 days, as shown in Table 1.
as §3
ME-180 (human cervical cancer) cells were cultured in the ATCC-formulated McCoy's 5A Medium supplemented with 10% FBS. […] The cells were rinsed with PBS, trypsined for detachment from the bottom of the flask, mixed with fresh growth medium, and centrifuged to remove the supernatant. The cells were re-suspend with fresh medium to appropriate concentration for s.c. injection into the mice. Injection volume was 50 μl (1.5×10^6 cells) per animal.
ME-180 tumour cells were subcutaneously into female SCID mice (age 6-8 weeks) in a volume of 50 μL into the left flank using a 27-gauge needle. This was established as a subcutaneous (SC) xenograft mouse model of human cervical cancer.
Mice were individually weighed and injected intraperitoneally according to body weight for an injection concentration as outlined in the study group table above. The injection volume was based on 200 μL per 20 g mouse. The skin surface was wiped down with 70% isopropyl alcohol to clean the injection site.
Tumor size was measured as a function of time to assess tumor growth delay associated with treatment using slide caliper. […]

[12] = mouse, in vivo, ip, 7 mg/kg/day

Compound: O=c1[nH]c(=O)n([C@H]2C[C@H](O)[C@@H](CO)O2)cc1Br [BrdU, bromodeoxyuridine]
- DET reaction with weakly-bound electron ewb− [1]: no DET reactions detected; also recorded: negligible; also recorded: no DET reaction

Compound: Nc1cc(Cl)c(Cl)cc1N [Compound A, 4,5-dichloro-1,2-phenylenediamine]
- cell survival rate (killing of cancer cells) ([2]; A549, 96 hr treatment): significant killing
- cell survival rate (killing of cancer cells) [3]: significant killing
- cell survival rate (killing of cisplatin-resistant cancer cells) [4]: significant killing
- toxicity to human normal cells (cell survival rate) [5]: essentially no toxicity; also recorded: little toxicity
- cell survival rate (killing of cancer cells) [6]: significant killing
- cell survival rate (killing of cancer cells) [7]: significant killing

Compound: Nc1cc(Br)c(Br)cc1N [Compound B, 4,5-dibromo-1,2-phenylenediamine]
- activation of caspase-3 and -7 ([8]; ME-180, 0-200 μM): significant activation
- population of apoptotic cells ([8]; ME-180, 200 μM): ≥ 60%
- cell survival rate (killing of cancer cells) ([2]; A549, 96 hr treatment): significant killing
- cell survival rate (killing of cancer cells) [3]: significant killing
- overall toxicity ([9]; 7 mg/kg daily for 5 days, IP): no overall drug toxicity
- electrolytes (Na, K, Cl) [9, 12]: no changes in electrolytes
- hepatotoxicity (ALT, ALP, total bilirubin) [9, 12]: no hepatotoxicity
- nephrotoxicity (blood urea, creatinine) [9, 12]: no nephrotoxicity
- yield of DNA double-strand breaks (γ-H2AX intensity) [10]: significant amount of DNA DSBs
- cell survival rate (killing of cisplatin-resistant cancer cells) [4]: significant killing
- toxicity to human normal cells (cell survival rate) [5]: essentially no toxicity; also recorded: little toxicity
- tumor growth vs control group [11]: significantly suppressed tumor growth
- cell survival rate (killing of cancer cells) [6]: significant killing
- dissociative lifetime of NPB*− ([1]; ethanol): ~6.0 ps
- DET reaction with weakly-bound electron ewb− [1]: highly effective
- cell survival rate (killing of cancer cells) [7]: significant killing

Compound: Nc1cc(I)c(I)cc1N [Compound C, 4,5-diiodo-1,2-phenylenediamine]
- cell survival rate (killing of cancer cells) ([2]; A549, 72 hr treatment): significant killing
- cell survival rate (killing of cancer cells) [3]: significant killing
- cell survival rate (killing of cisplatin-resistant cancer cells) [4]: significant killing
- toxicity to human normal cells (cell survival rate) [5]: essentially no toxicity; also recorded: little toxicity
- cell survival rate (killing of cancer cells) [7]: significant killing

Compound: O=c1[nH]c(=O)n([C@H]2C[C@H](O)[C@@H](CO)O2)cc1I [IdU, iododeoxyuridine]
- DET reaction with weakly-bound electron ewb− [1]: no DET reactions detected; also recorded: negligible; also recorded: no DET reaction

Compound: bromo-(1,2-)diamino-benzene [Compound D]
- cell survival rate (killing of cancer cells) ([2]; A549, 96 hr treatment): significant killing
- cell survival rate (killing of cancer cells) [3]: significant killing
- cell survival rate (killing of cisplatin-resistant cancer cells) [4]: significant killing
- toxicity to human normal cells (cell survival rate) [5]: essentially no toxicity; also recorded: little toxicity
- cell survival rate (killing of cancer cells) [6]: significant killing
- cell survival rate (killing of cancer cells) [7]: significant killing

Compound: cis-Pt(NH3)2Cl2 [cisplatin, reference compound]
- IC50 ([5]; read-out: IC50 (cell survival rate 50% with respect to untreated cells), GM05757, 72-hr treatment): ~10 µM
